Data as given in patent publication US20240109865A1, “INDAZOLE COMPOUNDS AS KINASE INHIBITORS” (TYRA BIOSCIENCES, INC., priority 2020, published 2024).

How the values were obtained:
Assay in all cases: Kinase assay, binding constants (Kd), kinase-tagged T7 phage, qPCR
[1] = target: FGFR1 (Homo sapiens (Human), UniProt P11362)
Experimental: (§1) Kinase-tagged T7 phage strains were prepared in an E. coli host derived from the BL21 strain. E. coli were grown to log-phase and infected with T7 phage and incubated with shaking at 32° C. until lysis. The lysates were centrifuged and filtered to remove cell debris. Streptavidin-coated magnetic beads were treated with biotinylated small molecule ligands for 30 minutes at room temperature to generate affinity resins for kinase assays. The liganded beads were blocked with excess biotin and washed with blocking buffer SeaBlock (Pierce), […], 1 mM DTT to remove unbound ligand and to reduce non-specific binding.
(§2) Test compounds were prepared as 111λ stocks in 10000 DMS0. Kds were determined using an 11-point 3-fold compound dilution series with three DMSO control points. […] The compounds were then diluted directly into the assays such that the final concentration of DMSO was 0.9%. All reactions performed in polypropylene 384-well plate. Each was a final volume of 0.02 ml. […] The beads were then re-suspended in elution buffer (1×PBS, 0.05% Tween […] non-biotinylated affinity ligand) and incubated at room temperature with shaking for 30 minutes. The kinase concentration in the eluates was measured by qPCR.
(§3) Binding constants were calculated with a standard dose-response curve using the Hill equation: […]
(§4) The Hill Slope was set to −1. Curves were fitted using a non-linear least square fit with the Levenberg-Marquardt algorithm.

[2] = target: FGFR2 (Homo sapiens (Human), UniProt P21802)
Sequence of FGFR2 (P21802 22-821): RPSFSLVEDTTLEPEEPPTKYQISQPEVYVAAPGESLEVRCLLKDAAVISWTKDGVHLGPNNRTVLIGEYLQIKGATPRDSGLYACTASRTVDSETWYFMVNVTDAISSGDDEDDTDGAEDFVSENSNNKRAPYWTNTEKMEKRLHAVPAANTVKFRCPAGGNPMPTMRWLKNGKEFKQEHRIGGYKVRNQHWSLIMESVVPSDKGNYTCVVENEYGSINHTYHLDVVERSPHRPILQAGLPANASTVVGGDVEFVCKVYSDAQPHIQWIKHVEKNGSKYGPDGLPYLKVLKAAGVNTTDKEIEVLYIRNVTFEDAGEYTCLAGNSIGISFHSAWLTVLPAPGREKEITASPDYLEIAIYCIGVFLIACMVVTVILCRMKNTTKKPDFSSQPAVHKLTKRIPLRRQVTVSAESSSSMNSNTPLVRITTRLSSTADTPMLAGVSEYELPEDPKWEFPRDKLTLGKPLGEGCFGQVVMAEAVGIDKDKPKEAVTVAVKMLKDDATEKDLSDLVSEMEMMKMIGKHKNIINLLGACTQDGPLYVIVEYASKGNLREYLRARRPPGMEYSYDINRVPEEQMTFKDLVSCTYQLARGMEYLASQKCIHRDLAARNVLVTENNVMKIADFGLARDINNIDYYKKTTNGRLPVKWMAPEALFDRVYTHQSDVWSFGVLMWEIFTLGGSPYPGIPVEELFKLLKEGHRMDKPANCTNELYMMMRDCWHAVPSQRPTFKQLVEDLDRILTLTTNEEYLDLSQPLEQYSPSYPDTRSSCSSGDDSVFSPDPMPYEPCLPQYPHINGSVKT
Experimental: as §1, §2, §3, §4

[3] = target: FGFR3 (Homo sapiens (Human), UniProt P22607)
Sequence of FGFR3 (P22607 23-806): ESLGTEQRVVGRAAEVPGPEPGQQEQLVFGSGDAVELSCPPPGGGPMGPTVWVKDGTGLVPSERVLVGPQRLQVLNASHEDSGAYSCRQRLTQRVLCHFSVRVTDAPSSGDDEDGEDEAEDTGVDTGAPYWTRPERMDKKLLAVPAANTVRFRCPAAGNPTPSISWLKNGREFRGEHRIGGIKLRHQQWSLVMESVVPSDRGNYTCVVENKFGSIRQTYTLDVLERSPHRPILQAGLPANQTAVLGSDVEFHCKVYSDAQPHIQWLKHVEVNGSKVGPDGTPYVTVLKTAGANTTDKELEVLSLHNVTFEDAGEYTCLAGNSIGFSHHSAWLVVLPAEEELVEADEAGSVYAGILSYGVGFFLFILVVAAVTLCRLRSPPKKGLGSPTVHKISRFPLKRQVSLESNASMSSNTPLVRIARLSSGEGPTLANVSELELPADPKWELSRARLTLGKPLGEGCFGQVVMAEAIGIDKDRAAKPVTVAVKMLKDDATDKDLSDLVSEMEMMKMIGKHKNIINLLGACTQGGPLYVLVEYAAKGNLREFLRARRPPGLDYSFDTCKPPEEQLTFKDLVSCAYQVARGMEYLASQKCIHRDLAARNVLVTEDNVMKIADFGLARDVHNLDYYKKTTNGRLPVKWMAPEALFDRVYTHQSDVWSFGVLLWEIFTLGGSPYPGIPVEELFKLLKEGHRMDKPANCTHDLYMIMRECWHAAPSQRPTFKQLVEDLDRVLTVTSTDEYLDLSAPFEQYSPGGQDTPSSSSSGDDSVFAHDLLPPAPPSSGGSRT
Experimental: as §1, §2, §3, §4

[4] = target: FGFR3 (V555M) (Homo sapiens (Human), UniProt P22607, V555M); conditions: V555M mutant
Sequence of FGFR3 (V555M) (P22607 23-806 V555M): as the sequence (P22607 23-806) above, with V533M counted along it
Experimental: as §1, §2, §3, §4

[5] = target: FGFR4 (Homo sapiens (Human), UniProt P22455)
Sequence of FGFR4 (P22455 22-802): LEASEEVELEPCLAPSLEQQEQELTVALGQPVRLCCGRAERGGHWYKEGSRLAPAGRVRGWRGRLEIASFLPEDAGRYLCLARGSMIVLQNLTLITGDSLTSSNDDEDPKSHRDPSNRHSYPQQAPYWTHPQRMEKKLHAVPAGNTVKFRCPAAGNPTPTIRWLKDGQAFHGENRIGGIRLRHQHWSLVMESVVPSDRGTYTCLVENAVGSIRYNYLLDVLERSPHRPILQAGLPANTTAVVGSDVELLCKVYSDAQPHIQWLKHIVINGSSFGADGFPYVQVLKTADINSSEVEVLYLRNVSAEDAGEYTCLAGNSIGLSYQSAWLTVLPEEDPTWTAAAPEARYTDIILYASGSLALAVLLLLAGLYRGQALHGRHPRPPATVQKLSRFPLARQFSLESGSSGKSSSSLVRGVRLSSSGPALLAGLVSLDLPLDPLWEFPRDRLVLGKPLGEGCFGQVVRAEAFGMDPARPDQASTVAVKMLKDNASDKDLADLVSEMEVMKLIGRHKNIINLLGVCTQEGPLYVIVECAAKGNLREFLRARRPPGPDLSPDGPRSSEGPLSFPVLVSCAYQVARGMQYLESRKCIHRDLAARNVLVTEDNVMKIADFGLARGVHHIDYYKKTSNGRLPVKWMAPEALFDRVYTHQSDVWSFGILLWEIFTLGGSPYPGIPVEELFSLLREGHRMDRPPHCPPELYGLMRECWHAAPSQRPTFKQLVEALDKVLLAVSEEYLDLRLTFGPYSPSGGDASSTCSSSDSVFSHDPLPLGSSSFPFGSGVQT
Experimental: as §1, §2, §3, §4

Sequence of FGFR1 (P11362 22-822): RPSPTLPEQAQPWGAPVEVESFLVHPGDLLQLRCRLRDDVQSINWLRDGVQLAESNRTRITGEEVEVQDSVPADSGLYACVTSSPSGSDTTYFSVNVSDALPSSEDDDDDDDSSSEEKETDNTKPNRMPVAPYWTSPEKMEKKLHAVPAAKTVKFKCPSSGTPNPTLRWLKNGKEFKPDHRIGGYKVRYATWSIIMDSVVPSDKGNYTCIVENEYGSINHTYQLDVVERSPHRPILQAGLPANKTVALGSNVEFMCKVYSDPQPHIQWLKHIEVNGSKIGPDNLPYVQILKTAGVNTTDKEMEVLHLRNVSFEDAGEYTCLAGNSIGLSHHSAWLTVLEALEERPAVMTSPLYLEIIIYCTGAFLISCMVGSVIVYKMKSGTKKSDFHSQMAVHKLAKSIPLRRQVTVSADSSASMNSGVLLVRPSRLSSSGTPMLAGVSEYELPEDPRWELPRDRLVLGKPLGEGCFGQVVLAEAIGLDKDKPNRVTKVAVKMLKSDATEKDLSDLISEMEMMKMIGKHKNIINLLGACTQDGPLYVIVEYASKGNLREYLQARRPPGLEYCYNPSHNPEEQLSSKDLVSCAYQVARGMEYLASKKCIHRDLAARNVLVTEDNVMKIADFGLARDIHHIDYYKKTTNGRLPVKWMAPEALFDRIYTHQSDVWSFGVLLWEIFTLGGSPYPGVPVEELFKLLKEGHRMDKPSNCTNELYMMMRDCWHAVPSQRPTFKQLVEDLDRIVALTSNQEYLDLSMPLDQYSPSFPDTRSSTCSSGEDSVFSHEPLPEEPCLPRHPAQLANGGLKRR

Row | Structure (SMILES) | Kd [1] [nM] | Kd [2] [nM] | Kd [3] [nM] | Kd [4] [nM] | Kd [5] [nM]
1 | C[C@@H](Oc1ccc2[nH]nc(-c3cnc(Cl)nc3)c2c1)c1c(Cl)cncc1Cl [Example 59, 3-(2-Chloropyrimidin-5-yl)-5-[(1R)-1-(3,5-dichloro-4-pyridyl)ethoxy]-1H-indazole] | 20 to 100 | 100 to 300 | 20 to 100 | 20 to 100 | 20 to 100
2 | C[C@@H](Oc1ccc2[nH]nc(-c3ccc(N4CC5(CCN(S(C)(=O)=O)CC5)OC4=O)nc3)c2c1)c1c(Cl)cncc1Cl [Example 76, 3-[5-[5-[(1R)-1-(3,5-dichloro-4-pyridyl)ethoxy]-1H-indazol-3-yl]-2-pyridyl]-8-methylsulfonyl-1-oxa-3,8-diazaspiro[4.5]decan-2-one] | 20 to 100 | 20 to 100 | 1 to 20 | 1 to 20 | 1 to 20
3 | CC(C)N1CC[C@@H](n2cc(-c3n[nH]c4ccc(O[C@H](C)c5c(Cl)cncc5Cl)cc34)cn2)C1 [Example 84, 5-[(1R)-1-(3,5-dichloro-4-pyridyl)ethoxy]-3-[(1R)-1-(1-isopropylpyrrolidin-3-yl)pyrazol-4-yl]-1H-indazole] | 1 to 20 | 1 to 20 | 1 to 20 | 1 to 20 | 20 to 100
4 | C[C@@H](Oc1ccc2[nH]nc(-c3cnn(C4CNC4)c3)c2c1)c1c(Cl)cncc1Cl [Example 85, 3-[1-(azetidin-3-yl)pyrazol-4-yl]-5-[(1R)-1-(3,5-dichloro-4-pyridyl)ethoxy]-1H-indazole] | 1 to 20 | 1 to 20 | 1 to 20 | 1 to 20 | 1 to 20
5 | CC(C)N1CC(n2cc(-c3n[nH]c4ccc(O[C@H](C)c5c(Cl)cncc5Cl)cc34)cn2)C1 [Example 86, 5-[(1R)-1-(3,5-dichloro-4-pyridyl)ethoxy]-3-[1-(1-isopropylazetidin-3-yl)pyrazol-4-yl]-1H-indazole] | 1 to 20 | 1 to 20 | 1 to 20 | 1 to 20 | 1 to 20
6 | C[C@@H](Oc1ccc2[nH]nc(-c3ccc(N4CC5(CCN5)C4)nc3)c2c1)c1c(Cl)cncc1Cl [Example 99, 3-[6-(1,6-diazaspiro[3.3]heptan-6-yl)-3-pyridyl]-5-[(1R)-1-(3,5-dichloro-4-pyridyl)ethoxy]-1H-indazole] | 1 to 20 | 1 to 20 | 1 to 20 | 1 to 20 | 1 to 20
7 | Cc1cc(-c2n[nH]c3ccc(O[C@H](C)c4c(Cl)cncc4Cl)cc23)cnc1N1CCOCC1 [Example 101, 4-[5-[5-[(1R)-1-(3,5-dichloro-4-pyridyl)ethoxy]-1H-indazol-3-yl]-3-methyl-2-pyridyl]morpholine] | 20 to 100 | 20 to 100 | 1 to 20 | 1 to 20 | 1 to 20
8 | C[C@@H](Oc1ccc2[nH]nc(-c3cnc(N4CCOCC4)c(C#N)c3)c2c1)c1c(Cl)cncc1Cl [Example 102, 5-[5-[(1R)-1-(3,5-dichloro-4-pyridyl)ethoxy]-1H-indazol-3-yl]-2-morpholino-pyridine-3-carbonitrile] | 20 to 100 | 20 to 100 | 1 to 20 | 1 to 20 | 1 to 20
9 | COc1cc(-c2n[nH]c3ccc(O[C@H](C)c4c(Cl)cncc4Cl)cc23)cnc1N1CCOCC1 [Example 105, 4-[5-[5-[(1R)-1-(3,5-dichloro-4-pyridyl)ethoxy]-1H-indazol-3-yl]-3-methoxy-2-pyridyl]morpholine] | > 300 | > 300 | 100 to 300 | 100 to 300 | 20 to 100
10 | C[C@@H](Oc1ccc2[nH]nc(-c3ccc(N4CC5(CCNCC5)C4)nc3)c2c1)c1c(Cl)cncc1Cl [Example 110, 3-[6-(2,7-diazaspiro[3.5]nonan-2-yl)-3-pyridyl]-5-[(1R)-1-(3,5-dichloro-4-pyridyl)ethoxy]-1H-indazole] | 1 to 20 | 1 to 20 | 1 to 20 | 1 to 20 | 1 to 20
11 | CCOC(=O)N1CCC2(CC1)CN(c1ncc(-c3n[nH]c4ccc(O[C@H](C)c5c(Cl)cncc5Cl)cc34)cn1)C2 [Example 126, ethyl 2-[5-[5-[(1R)-1-(3,5-dichloro-4-pyridyl)ethoxy]-1H-indazol-3-yl]pyrimidin-2-yl]-2,7-diazaspiro[3.5]nonane-7-carboxylate] | 100 to 300 | 100 to 300 | 1 to 20 | 1 to 20 | 1 to 20
12 | Cc1cnnc(C)c1[C@@H](C)Oc1ccc2[nH]nc(-c3cnc(N4CCCC4)c(C#N)c3)c2c1 [Example 173, 5-[5-[(1R)-1-(3,5-dimethylpyridazin-4-yl)ethoxy]-1H-indazol-3-yl]-2-pyrrolidin-1-yl-pyridine-3-carbonitrile] | 100 to 300 |  | 20 to 100 | 20 to 100 | 1 to 20
13 | CCN1C2CC1CN(c1ccc(-c3n[nH]c4cc(OC)c(O[C@H](C)c5c(C)cnnc5C)cc34)cn1)C2 [Example 213, 3-(5-(5-((R)-1-(3,5-dimethylpyridazin-4-yl)ethoxy)-6-methoxy-1H-indazol-3-yl)pyridin-2-yl)-6-ethyl-3,6-diazabicyclo[3.1.1]heptane] | 1 to 20 |  | 1 to 20 | 1 to 20 | 1 to 20
14 | C[C@@H](Oc1ccc2[nH]nc(-c3ccc(N4CC5(CCOC5)C4)nc3)c2c1)c1c(Cl)cnnc1Cl [Example 223, (R)-2-(5-(5-(1-(3,5-dichloropyridazin-4-yl)ethoxy)-1H-indazol-3-yl)pyridin-2-yl)-6-oxa-2-azaspiro[3.4]octane] |  | 100 to 300 | 20 to 100 | 20 to 100 | 

Other lines, results leading:

Row | Kd [1] [nM] | Kd [2] [nM] | Kd [3] [nM] | Kd [4] [nM] | Kd [5] [nM] | Structure (SMILES)
15 | 1 to 20 | 1 to 20 | 1 to 20 | 1 to 20 | 1 to 20 | C[C@@H](Oc1ccc2[nH]nc(-c3ccc(N4CC5(CNC5)C4)nc3)c2c1)c1c(Cl)cncc1Cl [Example 45, 3-[6-(2,6-diazaspiro[3.3]heptan-2-yl)-3-pyridyl]-5-[(1R)-1-(3,5-dichloro-4-pyridyl)ethoxy]-1H-indazole]
16 | 1 to 20 | 20 to 100 | 1 to 20 | 1 to 20 | 1 to 20 | C[C@@H](Oc1ccc2[nH]nc(-c3cnc(N4CCCNCC4)nc3)c2c1)c1c(Cl)cncc1Cl [Example 61, 3-[2-(1,4-Diazepan-1-yl)pyrimidin-5-yl]-5-[(1R)-1-(3,5-dichloro-4-pyridyl)ethoxy]-1H-indazole]
17 | 1 to 20 | 1 to 20 | 1 to 20 | 1 to 20 | 1 to 20 | C[C@@H](Oc1ccc2[nH]nc(-c3cnn(C4CCN(S(C)(=O)=O)CC4)c3)c2c1)c1c(Cl)cncc1Cl [Example 66, 5-[(1R)-1-(3,5-dichloro-4-pyridyl)ethoxy]-3-[1-(1-methylsulfonyl-4-piperidyl)pyrazol-4-yl]-1H-indazole]
18 | 1 to 20 | 1 to 20 | 1 to 20 | 1 to 20 | 1 to 20 | C[C@@H](Oc1ccc2[nH]nc(-c3ccc(C4CCNCC4)nc3)c2c1)c1c(Cl)cncc1Cl [Example 69, 5-[(1R)-1-(3,5-dichloro-4-pyridyl)ethoxy]-3-[6-(4-piperidyl)-3-pyridyl]-1H-indazole]
19 | 1 to 20 | 1 to 20 | 1 to 20 | 1 to 20 | 1 to 20 | C[C@@H](Oc1ccc2[nH]nc(-c3cnn(C4CCN(C(=O)CN(C)C)CC4)c3)c2c1)c1c(Cl)cncc1Cl [Example 81, 1-[4-[4-[5-[(1R)-1-(3,5-dichloro-4-pyridyl)ethoxy]-1H-indazol-3-yl]pyrazol-1-yl]-1-piperidyl]-2-(dimethylamino)ethanone]
20 | 1 to 20 | 1 to 20 | 1 to 20 | 1 to 20 | 20 to 100 | CC(C)N1CCC(n2cc(-c3n[nH]c4ccc(O[C@H](C)c5c(Cl)cncc5Cl)cc34)cn2)CC1 [Example 83, 5-[(1R)-1-(3,5-dichloro-4-pyridyl)ethoxy]-3-[1-(1-isopropyl-4-piperidyl)pyrazol-4-yl]-1H-indazole]
21 | 1 to 20 | 1 to 20 | 1 to 20 | 1 to 20 | 20 to 100 | CCN1CC[C@H](n2cc(-c3n[nH]c4ccc(O[C@H](C)c5c(Cl)cncc5Cl)cc34)cn2)C1 [Example 89, 5-[(1R)-1-(3,5-dichloro-4-pyridyl)ethoxy]-3-[1-[(3S)-1-ethylpyrrolidin-3-yl]pyrazol-4-yl]-1H-indazole]
22 | 1 to 20 | 20 to 100 | 1 to 20 | 1 to 20 | 1 to 20 | C[C@@H](Oc1ccc2[nH]nc(-c3ccc(N4CCOCC4)cn3)c2c1)c1c(Cl)cncc1Cl [Example 103, 4-[6-[5-[(1R)-1-(3,5-dichloro-4-pyridyl)ethoxy]-1H-indazol-3-yl]-3-pyridyl]morpholine]
23 | 1 to 20 | 20 to 100 | 1 to 20 | 1 to 20 | 1 to 20 | C[C@@H](Oc1ccc2[nH]nc(-c3cnc(N4CC5(CNC5)C4)nc3)c2c1)c1c(Cl)cncc1Cl [Example 118, 3-[2-(2,6-diazaspiro[3.3]heptan-2-yl)pyrimidin-5-yl]-5-[(1R)-1-(3,5-dichloro-4-pyridyl)ethoxy]-1H-indazole]
